Experimental data taken from patent US20240197823A1, “CATIONIC ANTIMICROBIAL PEPTIDES AND USES THEREOF” (priority 2021, published 2024).
In brackets after ≈: the same amount, converted by molar mass. Like-named read-outs stand apart in the source and are kept apart here. No end group written: not given here.

Key:
P. aeruginosa = experiment: microbe, parasite or virus in culture
Experimental: (§1) Bacteria. Bacterial clinical isolates, used for initial screening and in previous studies [Greber K E et al., 2017], were anonymously provided by the clinical microbiology laboratory of the University of Pittsburgh medical Center. The panel used for secondary screening was from CDC (Table 4), with resistance profiles data. Bacteria are stored in lock-secured −80° C. freezer and typically retrieved by obtaining single colonies on agar plates prior for subsequent liquid broth cultures. Suspensions of test bacteria were prepared from log phase of growth by diluting overnight cultures at 1:100 with fresh cation-adjusted MHB (MHB2, Millipore Sigma, USA) and incubating for additional 3-4 hours. Bacteria were spun at 3000×g for 10 minutes and the pellet resuspended in test condition media (Millipore Sigma, USA) to determine bacterial turbidity using a Den-1B densitometer (Grant Instruments, USA) at 0.5 McFarland (unit of bacterial density) corresponding to […].
(§2) Antibacterial assays. To examine antibacterial activity, this study used minor modifications of a standard growth inhibition assay endorsed by the Clinical and Laboratory Standards Institute (CLSI), as previously described [Greber K E et al., 2017]. Bacteria were incubated with each of the indicated peptides in MHB2. The bacterial cells were kept in an incubator for 18 hours at 37° C., which is linked to a robotic system that feeds a plate reader every hour with one of 8×96-well plates. This set-up allows the collection of growth kinetic data at A 570 (absorbance at 570 nm) to examine growth inhibition in real time (BioTek Instruments, USA). […] To assess bactericidal properties of the peptide, the assay was modified by using 15% fetal bovine serum (FBS, for a more physiologically relevant test condition) mixed with 25% MHB2 and 60% PBS. Bacterial cells (colony forming unit/mL or CFU/mL) were enumerated after incubating treated bacteria for 3 hours and plating serially diluted samples on broth agar medium at 37° C. overnight. […] For killing kinetics, we slightly modified the bactericidal assay to examine bacterial killing at the MBC (or 2×MBC) as a function of time for up to 3 hours. Data were analyzed using GraphPad Prism software.

E. coli = experiment: microbe, parasite or virus in culture
Experimental: as §1, §2

A. baumannii = experiment: microbe, parasite or virus in culture
Experimental: as §1, §2

Enterobacter spp = experiment: MIC growth inhibition assay in MHB2; type: cell-based, Enterobacter spp: EA (aerogenes), EC (cloacae)
Experimental: as §1, §2

K. pneumoniae = experiment: MIC growth inhibition assay in MHB2; type: cell-based, klebsiella pneumoniae; conditions: read-out: MIC
Experimental: as §1, §2

E. Faecium = experiment: MIC growth inhibition assay in MHB2; type: cell-based, Enterococcus faecium
Experimental: as §1, §2

S. aureus = experiment: MIC growth inhibition assay in MHB2; type: cell-based, Staphylococcus aureus
Experimental: as §1, §2

[1] = tested on: MDR panel of gram-negative (GNB) and -positive (GPB) bacterial isolates classified as ESKAPE pathogens
Experimental: as §1
Antibacterial assays. To examine antibacterial activity, this study used minor modifications of a standard growth inhibition assay endorsed by the Clinical and Laboratory Standards Institute (CLSI), as previously described [Greber K E et al., 2017]. Bacteria were incubated with each of the indicated peptides in MHB2. The bacterial cells were kept in an incubator for 18 hours at 37° C., which is linked to a robotic system that feeds a plate reader every hour with one of 8×96-well plates. This set-up allows the collection of growth kinetic data at A 570 (absorbance at 570 nm) to examine growth inhibition in real time (BioTek Instruments, USA). […] To assess bactericidal properties of the peptide, the assay was modified by using 15% fetal bovine serum (FBS, for a more physiologically relevant test condition) mixed with 25% MHB2 and 60% PBS. Bacterial cells (colony forming unit/mL or CFU/mL) were enumerated after incubating treated bacteria for 3 hours and plating serially diluted samples on broth agar medium at 37° C. overnight. […] Data were analyzed using GraphPad Prism software.

NC[C@H]1O[C@H](O[C@H]2[C@H](O)[C@@H](O[C@H]3O[C@H](CO)[C@@H](O)[C@H](N)[C@H]3O)[C@H](N)C[C@@H]2N)[C@H](N)C[C@@H]1O [Tob]
MIC (P. aeruginosa; strain PA01): 1 µM (≈ 0.468 µg/mL)
MIC (P. aeruginosa; strain PA14): 0.5 µM (≈ 0.234 µg/mL)
MIC (P. aeruginosa; strain PA97-5): >16 µM
MIC (P. aeruginosa; strain PA129-5): 16 µM (≈ 7.48 µg/mL)
MIC (E. coli; strain YDC337): >16 µM
MIC (E. coli; strain YDC748): 16 µM (≈ 7.48 µg/mL)
MIC (A. baumannii; strain AB-A2): 0.5 µM (≈ 0.234 µg/mL)
MIC (A. baumannii; strain AB-A3): 16 µM (≈ 7.48 µg/mL)
MIC (A. baumannii; strain AB-F8): >16 µM
MIC (A. baumannii; strain AB-F9): 2 µM (≈ 0.935 µg/mL)
MIC (Enterobacter spp; strain EA518 (aerogenes)): >16 µM
MIC (Enterobacter spp; strain EA596 (aerogenes)): >16 µM
MIC (Enterobacter spp; strain EC470 (cloacae)): 4 µM (≈ 1.87 µg/mL)
MIC (Enterobacter spp; strain EC560 (cloacae)): >16 µM
MIC (K. pneumoniae; strain KPA5): >16 µM
MIC (K. pneumoniae; strain KPB3): >16 µM

Cc1onc(-c2ccccc2)c1C(=O)N[C@@H]1C(=O)N2[C@@H]1SC(C)(C)[C@@H]2C(=O)O [Oxa]
MIC (E. Faecium; strain EF23614): 0.25 µM (≈ 0.1 µg/mL)
MIC (E. Faecium; strain EF24670): >16 µM
MIC (E. Faecium; strain EF26215): 2 µM (≈ 0.803 µg/mL)
MIC (E. Faecium; strain EF26692): 2 µM (≈ 0.803 µg/mL)
MIC (S. aureus; strain SA12212): 8 µM (≈ 3.21 µg/mL)
MIC (S. aureus; strain SA18710): 4 µM (≈ 1.61 µg/mL)
MIC (S. aureus; strain SA49775): 0.25 µM (≈ 0.1 µg/mL)
MIC (S. aureus; strain SA-US300): 4 µM (≈ 1.61 µg/mL)

CC(C)C[C@H](NC(=O)[C@H](Cc1ccccc1)NC(=O)[C@@H]1CCCN1C(=O)[C@H](Cc1c[nH]c2ccccc12)NC(=O)[C@H](Cc1c[nH]c2ccccc12)NC(=O)[C@H](Cc1c[nH]c2ccccc12)NC(=O)[C@@H]1CCCN1C(=O)[C@H](Cc1ccccc1)NC(=O)[C@H](CCCNC(=N)N)NC(=O)[C@H](CCCNC(=N)N)NC(=O)[C@@H](N)C(C)C)C(=O)N[C@@H](CCCNC(=N)N)C(=O)N[C@@H](CCCNC(=N)N)C(=O)O [tritrpticin]
mean MIC [1]: > 10 µM

RVWRRVRRVWRRVRRVWRRV [E69]
MIC (P. aeruginosa): 2 µM
